From publication PMC6443933, “Antagonizing Retinoic Acid-Related-Orphan Receptor Gamma Activity Blocks the T Helper 17/Interleukin-17 Pathway Leading to Attenuated Pro-inflammatory Human Keratinocyte and Skin Responses” (Frontiers in Immunology, 2019)

Columns and labels:
human RORγt-LBD = biological target: T1, human RORγt-LBD (Homo sapiens, UniProt P51449); assay: TR-FRET RIP140 co-activator peptide displacement from RORγt-LBD; type: biochemical; conditions: 1 h incubation, read-out: IC50, disruption of RIP140 peptide interaction with RORγt-LBD
T1 construct: human RORγt-LBD (264-518, produced at Novartis); made in house
T1 sequence (P51449 264-518): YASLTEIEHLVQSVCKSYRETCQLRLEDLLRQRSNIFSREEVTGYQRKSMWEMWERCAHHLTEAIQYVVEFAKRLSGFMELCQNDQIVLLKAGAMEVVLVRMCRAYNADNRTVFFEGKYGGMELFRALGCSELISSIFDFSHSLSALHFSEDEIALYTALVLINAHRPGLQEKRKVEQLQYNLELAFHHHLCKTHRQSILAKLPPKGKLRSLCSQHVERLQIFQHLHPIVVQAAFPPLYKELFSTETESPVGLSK
Method: Compound-mediated disruption of the interaction between the human RORγt-LBD (264-518, produced at Novartis) with a biotinylated RIP140 derived co-activator peptide (biotinyl-NH-Ahx-[…]-CONH2, Thermo Scientific) was quantified by TR-FRET as previously described ([34], [44]). Briefly, Cpd A was incubated with a mixture consisting of 6 nM His6-tagged RORγt-LBD, 90 nM biotinylated RIP140 co-activator peptide, 0.45 nM Cy5-labeled streptavidin (GE Healthcare), 1.5 nM Europium-labeled anti-His6 antibody (Perkin Elmer). After 1 h of incubation, the emissions were measured at 615 and 665 nm. Concentration-response curves were generated and IC50 values were calculated using the GraphPad Prism software package.

[1] = tested on: HUT78 T-cells stably expressing full-length eGFP-RORγt; assay: IL-17A / IL-2 production by RORγt transduced HUT78 T-cell line; type: cell-based, human
[2] = tested on: human Th17 cells (total CD4+ T-cells); assay: RORγt target gene expression in Th17 cells by qRT-PCR; type: cell-based; conditions: Th17 polarization 72 h, concentration-dependent
Method: Total, naive and memory CD4^+ T cells were isolated from Peripheral blood mononuclear cells (PBMCs) from healthy volunteers by density gradient centrifugation using Ficoll Paque (GE). Total, naive or memory CD4^+ T-cells were prepared by immunomagnetic separation using the respective CD4^+ T-cell enrichment kits resulting in untouched highly purified subsets (EasySep™, Stem Cell). Purity was assessed by flow cytometry and was between 95 and 98% for the total CD4^+ T-cells. The purity of naive (CD45RA^+CD45RO^−) and memory (CD45RA^−CD45RO^+) CD4^+T-cells ranged between 95 and 98%, respectively. For T-cell stimulation experiments, cells were treated as previously published ([44]). Briefly, T-cells were stimulated with plate-bound monoclonal antibodies against CD3 (1 μg/ml, clone OKT-3, BioXcell) and CD28 (1 μg/ml, clone CD28.2, BioLegend). For Th17 polarization assays, IL-6 (20 ng/ml), TGF-β1 (5 ng/ml), IL-1β (10 ng/ml), and IL-23 (10 ng/ml) were added. For Th1 polarization assays, IL-12 (10 ng/ml) and anti-IL-4 antibody (5 μg/ml), for Th2 polarizations, IL-4 (10 ng/ml) and anti-IFN-γ antibody (5 μg/ml) were added. For Th0 polarization assays, cells were only stimulated with CD3 and CD28 antibodies. Supernatants were collected after 3 or 7 days of incubation for total or naive/memory CD4^+ T-cell polarizations, respectively. Cytokine concentrations were quantified by ELISA according to the manufacturer's instructions (eBioscience or BioLegend).
Total RNA from human Th17 cells (6 × 10^5 cells), RORγt-RORE HUT78 cells (4 × 10^5 cells) and HaCaT cells (6 × 10^4 cells) was extracted using RNeasy kit including a DNAse I digestion step according to the manufacturer‘s protocol (Qiagen). Frozen skin biopsies (8 mm punches) were resuspended in RLT buffer (Qiagen) containing 1% β-mercaptoethanol and homogenized using a Precellys-Cryolys device (Bertin Instruments) according to the manufacturer's instructions. cDNAs were prepared with the High Capacity cDNA Reverse Transcription Kit (Applied Biosystems). Quantitative RT-PCR analysis was performed using a TaqManViiA7 (Applied Biosystems). All runs were accompanied by the internal control gene human β-glucoronidase (Gus) (431088E). The samples were run in triplicate or in hexaplicate and normalized to Gus using the ΔΔCt method to provide arbitrary units representing relative expression levels. The following Taqman probes were used for RT-PCR (Thermo Scientific): RORC (Hs01076112_m1), IL17A (Hs00936345_m1), IL22 (Hs01574154_m1), IL26 (Hs00218189_m1), IL23R (Hs00332759_m1), CCR6 (Hs00218189_m1), NFKBIZ (Hs00355476_m), DEFB4A (Hs00823638_m1), IL36G (Hs00219742_m1), and CCL20 (Hs00355476_m1).

RORγt expression = RORγt expression in cultures (data not shown); type: cell-based; conditions: preliminary evidence

SMILES: Cc1ccc(C(=O)Nc2cn3ccnc3c(CN3CCN(c4noc(C(C)(C)C)n4)[C@@H](C)C3)c2C)cn1 [Cpd A, (S)-N-(8-((4-(5-(tert-butyl)-1,2,4-oxadiazol-3-yl)-3-methylpiperazin-1-yl)methyl)-7-methylimidazo[1,2-a]pyridin-6-yl)-6-methylnicotinamide]
- IC50 (human RORγt-LBD): 5.7 nM
- IC50 ([1]; Homo sapiens, PMA plus anti-CD3, 48 h, ELISA): 27 nM
- IL-2 cytokine production ([1]; PMA plus anti-CD3, 48 h, ELISA): not affected
- attenuation of IL-17A production ([1]; concentration-dependent): complete attenuation
- CCR6 gene expression [2]: significantly attenuated
- IL17A gene expression [2]: significantly attenuated
- IL17F gene expression [2]: significantly attenuated
- IL22 gene expression [2]: significantly attenuated
- IL23R gene expression [2]: significantly attenuated
- IL26 gene expression [2]: significantly attenuated
- RORγt expression in cultures (RORγt expression): did not modify
